pIC50: −log10 of the molar value.
Molecular target: T1, GST-RIPK1 (recombinant GST-RIPK1 kinase domain (residues 1-327)) (Homo sapiens, UniProt Q13546)
T1 construct: recombinant GST-RIPK1 kinase domain (residues 1-327) enzyme; made in house; host or cells: baculovirus-transfected Sf21 insect cells
T1 sequence (Q13546 1-327): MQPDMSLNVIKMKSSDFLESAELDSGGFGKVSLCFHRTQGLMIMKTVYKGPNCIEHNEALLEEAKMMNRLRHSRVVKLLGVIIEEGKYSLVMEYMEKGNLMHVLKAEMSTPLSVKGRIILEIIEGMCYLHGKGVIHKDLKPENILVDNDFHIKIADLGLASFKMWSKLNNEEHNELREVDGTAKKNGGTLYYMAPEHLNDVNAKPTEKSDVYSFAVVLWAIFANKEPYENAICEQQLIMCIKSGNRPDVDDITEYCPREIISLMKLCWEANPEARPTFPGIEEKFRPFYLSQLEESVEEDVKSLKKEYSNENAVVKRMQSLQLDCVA
Assay: RIPK1-ADP-Glo enzymatic assay
Format: biochemical
Conditions: 25 nM GST-RIPK1, 300 μM ATP, 3 μM dephosphorylated-MBP; 30 minutes pre-incubation, 150 minutes reaction; ten-point titration
Procedure: The enzymatic activity of RIPK1 is measured using an assay derived from ADP-Glo kit (Promega™), which provides a luminescent-based ADP detection system. Specifically, the ADP generated by RIPK1 kinase is proportionally detected as luminescent signals in a homogenous fashion. In this context, the assessment of the inhibitory effect of small molecules (EC50) is measured by the effectiveness of the compounds to inhibit the ATP to ADP conversion by RIPK1. In this assay, the potency (EC50) of each compound was determined from a ten-point (1:3 serial dilution; top compound concentration of 100000 nM) titration curve using the following outlined procedure. To each well of a white ProxiPlus 384 well-plate, […] of compound (1% DMSO in final assay volume of 3 μL) was dispensed, followed by the addition of 2 μL of 1× assay buffer (25 mM Hepes 7.3, 20 mM MgCl2, 50 mM NaCl, 1 mM DTT, 0.005% Tween20, and 0.02% BSA) containing 37.5 nM of GST-RIPK1 (recombinant GST-RIPK1 kinase domain (residues 1-327) enzyme produced from baculovirus-transfected Sf21 cells: MW=62 kDa). Plates were placed in an ambient temperature humidified chamber for a 30 minutes pre-incubation with compound. Subsequently, each reaction was initiated by the addition of 1 μL 1×assay buffer containing 900 μM ATP and […]. The final reaction in each well of 3 μL consists of 25 nM of GST-RIPK1, 300 μM ATP, and 3 μM dephosphorylated-MBP. Kinase reactions were allowed to proceed for 150 minutes prior to adding ADP-Glo reagents per Promega's outlined kit protocol. Dose-response curves were generated by plotting percent effect (% product conversion; Y-axis) vs. Log10 compound concentrations (X-axis). EC50 values were calculated using a non-linear regression, four-parameters sigmoidal dose-response model.

A pIC50 of 7.37 was found for `CC(C(=O)N1C[C@@H]2C[C@H]1c1cncc(C#N)c1O2)(C(F)F)C1CC1` (single isomer, unassigned) [Compound 1-89, (2S,5S)-4-(2-(R or S)-cyclopropyl-3,3-difluoro-2-methylpropanoyl)-2,3,4,5-tetrahydro-2,5-methanopyrido[3,4-f][1,4]oxazepine-9-carbonitrile] in this work.

A pIC50 of 7.22 was found for `N#Cc1cncc2c1O[C@H]1C[C@@H]2N(C(=O)C2(F)CC(Oc3ccc(F)cc3F)C2)C1` (single isomer, unassigned) [Compound 1-106, (2S,5S)-4-(3-(2,4-difluorophenoxy)-1-(R or S)-fluorocyclobutane-1-carbonyl)-2,3,4,5-tetrahydro-2,5-methanopyrido[3,4-f][1,4]oxazepine-9-carbonitrile] in this work.

A pIC50 of 7.64 was found for `N#Cc1cncc2c1O[C@H]1C[C@@H]2N(C(=O)C2(F)CC(Oc3ccc(F)cc3F)C2)C1` (single isomer, unassigned) [Compound 1-107, (2S,5S)-4-(3-(2,4-difluorophenoxy)-1-(R or S)-fluorocyclobutane-1-carbonyl)-2,3,4,5-tetrahydro-2,5-methanopyrido[3,4-f][1,4]oxazepine-9-carbonitrile] in this work.

A pIC50 of 6.60 was found for `CCC(C)(C#N)C(=O)N1C[C@@H]2C[C@H]1c1cncc(C#N)c1O2` (single isomer, unassigned) [Compound 1-112, (2S,5S)-4-(2-(R or S)-cyano-2-methylbutanoyl)-2,3,4,5-tetrahydro-2,5-methanopyrido[3,4-f][1,4]oxazepine-9-carbonitrile] in this work.

A pIC50 of 6.81 was found for `CCC(C)(C#N)C(=O)N1C[C@@H]2C[C@H]1c1cncc(C#N)c1O2` (single isomer, unassigned) [Compound 1-113, (2S,5S)-4-(2-(R or S)-cyano-2-methylbutanoyl)-2,3,4,5-tetrahydro-2,5-methanopyrido[3,4-f][1,4]oxazepine-9-carbonitrile] in this work.

A pIC50 of 7.05 was found for `O=C(N1C[C@@H]2C[C@H]1c1cncc(F)c1O2)C12CCC(CC1(F)F)C2` (single isomer, unassigned) [Compound 2-18, (2,2-(S or R)-difluorobicyclo[2.2.1]heptan-1-yl)((28,5S)-9-fluoro-2,3-dihydro-2,5-methanopyrido[3,4-f][1,4]oxazepin-4(5H)-yl)methanone] in this work.

A pIC50 of 6.34 was found for `O=C(N1C[C@@H]2C[C@H]1c1cncc(F)c1O2)C12CCC(CC1(F)F)C2` (single isomer, unassigned) [Compound 2-19, (2,2-(S or R)-difluorobicyclo[2.2.1]heptan-1-yl)((2S,5S)-9-fluoro-2,3-dihydro-2,5-methanopyrido[3,4-f][1,4]oxazepin-4(5H)-yl)methanone] in this work.

A pIC50 of 7.21 was found for `CCC(C)(C#N)C(=O)N1C[C@@H]2C[C@H]1c1cncc(C#N)c1S2` (single isomer, unassigned) [Compound 4-9, (2S,5S)-4-(2-(R or S)-cyano-2-methylbutanoyl)-2,3,4,5-tetrahydro-2,5-methanopyrido[3,4-f][1,4]thiazepine-9-carbonitrile] in this work.

A pIC50 of 7.37 was found for `CCC(C)(C#N)C(=O)N1C[C@@H]2C[C@H]1c1cncc(C#N)c1S2` (single isomer, unassigned) [Compound 4-10, (2S,5S)-4-(2-(R or S)-cyano-2-methylbutanoyl)-2,3,4,5-tetrahydro-2,5-methanopyrido[3,4-f][1,4]thiazepine-9-carbonitrile] in this work.

A pIC50 of 6.36 was found for `C[C@@H]1C2CN(C(=O)C(C)(C)C(F)F)[C@H]1c1cncc(C#N)c1O2` (single isomer, unassigned) [Compound 5-3] in this work.

A pIC50 of 6.78 was found for `C[C@@H]1C2CN(C(=O)C34CCC(C(F)(F)F)(CC3)C4)[C@H]1c1cncc(C#N)c1O2` (single isomer, unassigned) [Compound 5-4] in this work.

A pIC50 of 5.87 was found for `CC(C)(C(=O)N1C[C@H]2Cc3c(C#N)cncc3[C@@H]1C2)C(F)F` (single isomer, unassigned) [Compound 5-5] in this work.

A pIC50 of 6.91 was found for `N#Cc1cncc2c1C[C@H]1C[C@@H]2N(C(=O)C23CCC(C(F)(F)F)(CC2)C3)C1` (single isomer, unassigned) [Compound 5-6] in this work.

A pIC50 of 7.49 was found for `CC(C)(C(=O)N1C[C@@H]2C[C@H]1c1cncc(C#N)c1O2)C(F)F` [Compound 1-1, (2S,5S)-4-(3,3-difluoro-2,2-dimethylpropanoyl)-2,3,4,5-tetrahydro-2,5-methanopyrido[3,4-f][1,4]oxazepine-9-carbonitrile] in this work.

A pIC50 of 8.15 was found for `N#Cc1cncc2c1O[C@H]1C[C@@H]2N(C(=O)C23CCC(C(F)(F)F)(CC2)C3)C1` [Compound 1-2, (2S,5S)-4-[4-(trifluoromethyl)bicyclo[2.2.1]heptane-1-carbonyl]-2,3,4,5-tetrahydro-2,5-methanopyrido[3,4-f][1,4]oxazepine-9-carbonitrile] in this work.

A pIC50 of 7.30 was found for `CC(C)(C)C(=O)N1C[C@@H]2C[C@H]1c1cncc(C#N)c1O2` [Compound 1-3, (2S,5S)-4-(2,2-dimethylpropanoyl)-2,3,4,5-tetrahydro-2,5-methanopyrido[3,4-f][1,4]oxazepine-9-carbonitrile] in this work.

A pIC50 of 7.89 was found for `CCC(C)(C)C(=O)N1C[C@@H]2C[C@H]1c1cncc(C#N)c1O2` [Compound 1-4, (2S,5S)-4-(2,2-dimethylbutanoyl)-2,3,4,5-tetrahydro-2,5-methanopyrido[3,4-f][1,4]oxazepine-9-carbonitrile] in this work.

A pIC50 of 7.66 was found for `CC1(C(=O)N2C[C@@H]3C[C@H]2c2cncc(C#N)c2O3)CCCC1` [Compound 1-5, (2S,5S)-4-(1-methylcyclopentane-1-carbonyl)-2,3,4,5-tetrahydro-2,5-methanopyrido[3,4-f][1,4]oxazepine-9-carbonitrile] in this work.

A pIC50 of 7.96 was found for `N#Cc1cncc2c1O[C@H]1C[C@@H]2N(C(=O)C23CCC(CC2)C3)C1` [Compound 1-6, (2S,5S)-4-(bicyclo[2.2.1]heptane-1-carbonyl)-2,3,4,5-tetrahydro-2,5-methanopyrido[3,4-f][1,4]oxazepine-9-carbonitrile] in this work.

A pIC50 of 7.74 was found for `N#Cc1cncc2c1O[C@H]1C[C@@H]2N(C(=O)C23CCC(F)(CC2)C3)C1` [Compound 1-7, (2S,5S)-4-(4-fluorobicyclo[2.2.1]heptane-1-carbonyl)-2,3,4,5-tetrahydro-2,5-methanopyrido[3,4-f][1,4]oxazepine-9-carbonitrile] in this work.

A pIC50 of 7.54 was found for `CC(C)(C(=O)N1C[C@@H]2C[C@H]1c1cncc(C#N)c1O2)C1CC1` [Compound 1-8, (2S,5S)-4-(2-cyclopropyl-2-methylpropanoyl)-2,3,4,5-tetrahydro-2,5-methanopyrido[3,4-f][1,4]oxazepine-9-carbonitrile] in this work.

A pIC50 of 7.70 was found for `CC(C)(C(=O)N1C[C@@H]2C[C@H]1c1cncc(C#N)c1O2)C(F)(F)F` [Compound 1-9, (2S,5S)-4-(3,3,3-trifluoro-2,2-dimethylpropanoyl)-2,3,4,5-tetrahydro-2,5-methanopyrido[3,4-f][1,4]oxazepine-9-carbonitrile] in this work.

A pIC50 of 7.68 was found for `CC(F)(F)C(C)(C)C(=O)N1C[C@@H]2C[C@H]1c1cncc(C#N)c1O2` [Compound 1-10, (2S,5S)-4-(3,3-difluoro-2,2-dimethylbutanoyl)-2,3,4,5-tetrahydro-2,5-methanopyrido[3,4-f][1,4]oxazepine-9-carbonitrile] in this work.

A pIC50 of 7.21 was found for `N#Cc1cncc2c1O[C@H]1C[C@@H]2N(C(=O)C2(C(F)(F)F)CCC2)C1` [Compound 1-11, (2S,5S)-4-[1-(trifluoromethyl)cyclobutane-1-carbonyl]-2,3,4,5-tetrahydro-2,5-methanopyrido[3,4-f][1,4]oxazepine-9-carbonitrile] in this work.
